Each structure is given as a SMILES string.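 All cell lines were grown in 96-well plates and treated with compound for 48 hours. GI50 marks 50% less growth.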 Activity calls are given as the source filed them. Rule as the data show it: active = GI50 up to about 1.1 µM and inactive = higher.

Among the test systems are NCI-H522; OVCAR-5; M14; SK-OV-3; HOP-62; Hs-578T; HCT-15; SF-539; OVCAR-3; OVCAR-4; HCC 2998; NCI/ADR-RES; MOLT-4; HOP-92; Malme-3M; SW-620; TK-10; HT-29; SF-268.
Assay in all cases: NCI-60 cell line screen, 48 h

Turning to `NS(=O)(=O)c1nnc(/N=C(/CCC(=O)O)C(=O)O)s1`, the GI50 with NCI-H522, in the experiment with OVCAR-5, in the experiment on M14, in the experiment with SK-OV-3, in the experiment with HOP-62 and in the experiment with Hs-578T was > 100 µM (inactive) throughout. Also, the GI50 with HCT-15 was greater than 100 µM; with SF-539, > 100 µM (inactive); in the experiment on OVCAR-3, > 100 µM (inactive); with OVCAR-4, > 100 µM (inactive); in the experiment on HCC 2998 it was > 100 µM (inactive); with NCI/ADR-RES, > 100 µM (inactive). The GI50 with MOLT-4 is > 100 µM (inactive); in the experiment with HOP-92, > 100 µM (inactive); with Malme-3M, 41.3 µM (inactive); in the experiment on SW-620, > 100 µM (inactive); in the experiment with TK-10, > 100 µM (inactive); in the experiment with HT-29, > 100 µM (inactive).

For the molecule `COCC([C@@H](O)C(O)C(=O)NCC[C@@H](C)c1nc(/C=C/CC2OC3(C[C@H](O)C2C)OC(C(C[C@H](O)C(C)[C@H](O)C(C)/C=C(C)/C(C)=C/C=C/C(C)=C/C#N)OC)[C@@H](OP(=O)(O)O)C3(C)C)co1)N(C)C` (some centres not stated), the GI50 was 0.000167 µM (active) in the experiment on NCI-H522; 0.000192 µM (active) in the experiment on SF-268; 0.000188 µM (active) with OVCAR-5; 0.000173 µM (active) with M14; 0.000474 µM (active) in the experiment on SK-OV-3; 0.000196 µM (active) in the experiment on Hs-578T. In addition, the GI50 in the experiment on HCT-15 is 0.000202 µM; in the experiment on SF-539, 0.000189 µM (active); in the experiment on OVCAR-3, 0.000186 µM (active); with OVCAR-4 it was 0.00137 µM (active); in the experiment on HCC 2998, 0.000185 µM (active); with NCI/ADR-RES, 0.00107 µM (active). Further, the GI50 in the experiment with MOLT-4 was 0.00082 µM (active); in the experiment on HOP-92 it was 0.000175 µM (active); in the experiment on Malme-3M, 0.000174 µM (active); in the experiment on SW-620, 0.000182 µM (active); in the experiment with TK-10 it was 0.000115 µM (active); with HT-29, 0.000162 µM (active).

On to `O=c1c2cc(I)ccc2nc(SCc2nnco2)n1Cc1ccccc1`, for which the GI50 in the experiment on NCI-H522 was 44 µM (inactive); in the experiment with SF-268, > 100 µM (inactive); with OVCAR-5, > 100 µM (inactive); with M14, > 100 µM (inactive); with SK-OV-3, > 100 µM (inactive); with HOP-62, 98.4 µM (inactive). Besides, the GI50 with Hs-578T is 31.7 µM (inactive); in the experiment with HCT-15, greater than 100 µM; in the experiment on SF-539 it was > 100 µM (inactive); in the experiment with OVCAR-3, > 100 µM (inactive); in the experiment with OVCAR-4, > 100 µM (inactive); in the experiment on HCC 2998 it was 96.2 µM (inactive). In addition, the GI50 is > 100 µM (inactive) in the experiment on NCI/ADR-RES; 0.1 µM (active) in the experiment on MOLT-4; 35.6 µM (inactive) in the experiment with HOP-92; > 100 µM (inactive) in the experiment on SW-620; 87.9 µM (inactive) in the experiment with TK-10; 60.5 µM (inactive) with HT-29.

In the case of `COC(=O)C12C3C4C1C1C2C3C41C(=O)NC(C)(C)CC(=O)O` (configuration not stated), the GI50 in the experiment with NCI-H522, with SF-268, in the experiment with OVCAR-5, with M14, in the experiment with HOP-62 and with Hs-578T was > 100 µM (inactive) throughout. Moreover, the GI50 with HCT-15 was greater than 100 µM; in the experiment on SF-539, > 100 µM (inactive); in the experiment on OVCAR-3, > 100 µM (inactive); in the experiment on OVCAR-4, > 100 µM (inactive); in the experiment with HCC 2998, > 100 µM (inactive); in the experiment on NCI/ADR-RES it was > 100 µM (inactive). In addition, the GI50 with MOLT-4, in the experiment with HOP-92, in the experiment on Malme-3M, in the experiment with SW-620, in the experiment with TK-10 and in the experiment with HT-29 was > 100 µM (inactive) in each case.

`CC#CCCN(CC#N)Cc1ccccc1`: the GI50 with NCI-H522, with SF-268, in the experiment with OVCAR-5, in the experiment on M14, in the experiment on SK-OV-3 and in the experiment with HOP-62 was > 100 µM (inactive) in each case. Besides, the GI50 in the experiment with Hs-578T was > 100 µM (inactive); with HCT-15, greater than 100 µM; in the experiment with OVCAR-4, > 100 µM (inactive); in the experiment with HCC 2998, > 100 µM (inactive); with NCI/ADR-RES, > 100 µM (inactive); with MOLT-4 it was > 100 µM (inactive). Further, the GI50 in the experiment on HOP-92, with Malme-3M, in the experiment on TK-10 and in the experiment on HT-29 was > 100 µM (inactive) each time.

With `O=C(Nc1ccccc1C(=O)O)/C(=C/c1ccccc1)NC(=O)c1ccccc1`, the GI50 in the experiment on NCI-H522, in the experiment with SF-268, in the experiment on OVCAR-5, in the experiment on M14, with SK-OV-3 and in the experiment on HOP-62 was > 100 µM (inactive) throughout. Also, the GI50 was > 100 µM (inactive) in the experiment with Hs-578T; greater than 100 µM with HCT-15; > 100 µM (inactive) in the experiment on SF-539; > 100 µM (inactive) with OVCAR-3; > 100 µM (inactive) in the experiment with HCC 2998; > 100 µM (inactive) in the experiment with NCI/ADR-RES. Besides, the GI50 in the experiment with MOLT-4, with HOP-92, with Malme-3M, in the experiment with SW-620 and with HT-29 was > 100 µM (inactive) each time.

For `CC(C)(C)OC(=O)N(CCCCNC(=O)C(F)(F)F)CCCNC(=O)C(F)(F)F`, the GI50 with NCI-H522, with SF-268, with OVCAR-5, in the experiment with M14, with SK-OV-3 and in the experiment with HOP-62 was > 100 µM (inactive) throughout. Further, the GI50 is > 100 µM (inactive) with Hs-578T; greater than 100 µM in the experiment on HCT-15; > 100 µM (inactive) in the experiment on SF-539; > 100 µM (inactive) with OVCAR-3; > 100 µM (inactive) in the experiment with OVCAR-4; > 100 µM (inactive) in the experiment with HCC 2998. The GI50 in the experiment with NCI/ADR-RES, with MOLT-4, in the experiment on HOP-92, in the experiment with SW-620, in the experiment on TK-10 and with HT-29 was > 100 µM (inactive) each time.

Take `COc1ccc2oc(=N)c(C(N)=S)cc2c1`: the GI50 with NCI-H522 was 17.5 µM (inactive); in the experiment with SF-268, 15.5 µM (inactive); with OVCAR-5, 29.9 µM (inactive); with M14, 32.4 µM (inactive); in the experiment on SK-OV-3, 33.2 µM (inactive); in the experiment on HOP-62, 31.8 µM (inactive). Moreover, the GI50 is 23.2 µM (inactive) with Hs-578T; 17.5 µM with HCT-15; 22.1 µM (inactive) in the experiment with SF-539; 31.9 µM (inactive) with OVCAR-4; 17.3 µM (inactive) in the experiment with HCC 2998; 16.8 µM (inactive) in the experiment with NCI/ADR-RES. The GI50 with MOLT-4 is 20 µM (inactive); with HOP-92 it was 24 µM (inactive); in the experiment on Malme-3M, 14.1 µM (inactive); with SW-620 it was 25.5 µM (inactive); in the experiment on TK-10 it was 26.1 µM (inactive); in the experiment with HT-29 it was 32 µM (inactive).

Turning to `COC(=O)N1C2C(C[C@@]1(C)C(=O)OC)c1ccccc1N2S(=O)(=O)c1ccccc1` (some centres not stated), the GI50 with NCI-H522, in the experiment on SF-268, in the experiment on OVCAR-5, in the experiment with M14, with SK-OV-3 and with Hs-578T was > 100 µM (inactive) each time. Also, the GI50 in the experiment on OVCAR-3, with OVCAR-4, in the experiment with HCC 2998, in the experiment with NCI/ADR-RES, in the experiment with MOLT-4 and in the experiment with HOP-92 was > 100 µM (inactive) throughout. For the same molecule, the GI50 in the experiment with Malme-3M, with SW-620, in the experiment with TK-10 and with HT-29 was > 100 µM (inactive) each time.

On to `CC1OC(O[C@H]2CC[C@]3(C)[C@H]4CC=C5[C@@H]6[C@@H](C)[C@H](C)CC[C@]6(C(=O)OC6OC(CO)C(O)C(O)C6O)CC[C@@]5(C(=O)O)[C@]4(C)CC[C@H]3C2(C)C)C(O)C(O)C1O` (some centres not stated), for which the GI50 in the experiment with NCI-H522, in the experiment with SF-268, in the experiment with OVCAR-5, in the experiment with M14, in the experiment on SK-OV-3 and in the experiment on HOP-62 was > 100 µM (inactive) in each case. For the same molecule, the GI50 in the experiment with Hs-578T is > 100 µM (inactive); in the experiment on HCT-15, greater than 100 µM; in the experiment on SF-539, > 100 µM (inactive); with OVCAR-3, > 100 µM (inactive); with OVCAR-4, > 100 µM (inactive); with HCC 2998, > 100 µM (inactive). The GI50 in the experiment with NCI/ADR-RES, with MOLT-4, with HOP-92, with SW-620 and in the experiment with TK-10 was > 100 µM (inactive) throughout.

Take `COc1ccc(OC)c(Cc2cnc3nc(N)nc(N)c3c2C)c1` [PIRITREXIM ISETHIONATE]: the GI50 is 0.204 µM (active) in the experiment on NCI-H522; 0.0957 µM (active) with SF-268; 16.1 µM (inactive) with OVCAR-5; < 0.0201 µM (active) in the experiment on M14; 11.3 µM (inactive) in the experiment with SK-OV-3; 0.188 µM (active) in the experiment on HOP-62. Besides, the GI50 in the experiment with Hs-578T was 15.1 µM (inactive); in the experiment on HCT-15, 0.0149 µM; in the experiment on SF-539, 0.291 µM (active); in the experiment with OVCAR-3, 0.533 µM (active); in the experiment on OVCAR-4, 13.2 µM (inactive); in the experiment on HCC 2998 it was 0.258 µM (active). For the same molecule, the GI50 in the experiment with NCI/ADR-RES is 0.989 µM (active); with MOLT-4, < 0.0171 µM (active); in the experiment on HOP-92, 0.752 µM (active); with SW-620, < 0.0231 µM (active); in the experiment with TK-10, 13.5 µM (inactive); in the experiment with HT-29, < 0.0168 µM (active).

The record behind these values is ChEMBL document CHEMBL1201862, “PubChem BioAssay data set” (2004).
